According to patent US20260159500A1, “KINESIN KIF18A INHIBITOR AND USE THEREOF” (SHANGHAI APEIRON THERAPEUTICS COMPANY LIMITED, priority 2022, published 2026):
pIC50: −log10 of the molar value.

Legend:
[1] = tested on: OVCAR3 cells; assay: Cell proliferation activity test in OVCAR3 cells (CyQUANT Direct); format: cell-based; details: Homo sapiens, OVCAR-3, 72 h, 3 days incubation, CyQUANT fluorescence detection, read-out: OVCAR-3_IC50_nM
Outline: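 Log-phase cells in RPMI-1640 with 10% FBS were seeded overnight, then exposed to compound at final 0–10 μM (0.2% DMSO) for 3 days at 37 °C, 5% CO2. Proliferation was read by CyQUANT Direct fluorescence after 60 min at 37 °C.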

[2] = biological target: T1, Human KIF18A (amino acid sequence 1-417) (Homo sapiens, UniProt Q8NI77); assay: Enzymatic activity test (ADP-Glo, microtubule-stimulated KIF18A ATPase); format: biochemical; details: 60 μg/mL microtubules, 25 μM ATP, 2.5 nM KIF18A protein, 120 min at ambient temperature, read-out: KIF18A_nM
T1 construct: purchased Viva Biotech (Shanghai) Ltd
T1 sequence (Q8NI77 1-417): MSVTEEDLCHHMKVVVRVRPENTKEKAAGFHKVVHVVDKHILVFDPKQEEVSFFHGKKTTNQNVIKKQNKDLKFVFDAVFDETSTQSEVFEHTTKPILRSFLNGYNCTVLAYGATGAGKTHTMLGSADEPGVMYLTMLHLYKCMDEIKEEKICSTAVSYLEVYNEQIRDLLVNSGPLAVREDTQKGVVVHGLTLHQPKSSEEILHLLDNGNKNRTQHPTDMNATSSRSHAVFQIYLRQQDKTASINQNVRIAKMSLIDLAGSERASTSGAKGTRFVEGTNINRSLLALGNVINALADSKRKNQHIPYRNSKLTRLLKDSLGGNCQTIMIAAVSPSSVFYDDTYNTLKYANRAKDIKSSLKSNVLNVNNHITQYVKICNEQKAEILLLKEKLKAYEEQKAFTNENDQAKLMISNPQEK
Outline: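 Microtubule-stimulated ATPase of KIF18A(1-417) run with 60 μg/mL microtubules, 25 μM ATP and 2.5 nM enzyme, compounds at 0-10 μM final, 120 min at ambient temperature. ADP formed was read by ADP-Glo chemiluminescence after two 30-min reagent incubations.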

[3] = tested on: HT29 cells; assay: CyQuant cell proliferation activity test in HT29 cells; format: cell-based; details: Homo sapiens, HT-29, 72 h, 2000 cells per well, 3 days incubation, IC50 by XLFIT, read-out: HT29_IC50_nM
Outline: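 Cells seeded at 2000/well in RPMI-1640 with 10% FBS, overnight, then exposed 3 days at 37 °C to compound from 3000 nM top, 3-fold, 9 points, 0.2% DMSO. CyQuant read after 1 h; IC50 from curve fit.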

| pIC50 [1] | pIC50 [2] | pIC50 [3] | Compound |
| --- | --- | --- | --- |
| 6.41 | 6.34 | 6.41 | Cc1ccc2cc(NC(=O)c3ccc(NS(=O)(=O)CCO)cc3N3CCC4(CC3)CC4)nc(N3CCC(F)(F)CC3)c2n1 [Example 51, N-(8-(4,4-difluoropiperidin-1-yl)-2-methyl-1,7-naphthyridin-6-yl)-4-(2-hydroxyethylsulfonamido)-2-(6-azaspiro[2.5]octan-6-yl)benzamide] |
| 6.95 | 6.60 | 7.05 | O=C(Nc1cc2ccccc2c(N2CCC(F)(F)CC2)n1)c1ccc(NS(=O)(=O)CCO)cc1N1CCC2(CC1)CC2 [Example 55] |
| 7.92 | 7.47 | 7.89 | O=C(Nc1cc2ccncc2c(N2CCC(F)(F)CC2)n1)c1ccc(NS(=O)(=O)CCO)cc1N1CCC2(CC1)CC2 [Example 56] |
| 7.13 | 7.82 | 6.95 | O=C(Nc1cc2cc(O)nnc2c(N2CCC(F)(F)CC2)n1)c1ccc(NS(=O)(=O)CCO)cc1N1CCC2(CC1)CC2 [Example 61, 2-{6-Azaspiro[2.5]octan-6-yl}-N-[8-(4,4-difluoropiperidin-1-yl)-3-hydroxypyrido[3,4-c]pyridazin-6-yl]-4-(2-hydroxyethanesulfonamido)benzamide] |
| 6.38 | 6.63 | 6.43 | COc1ccc2cc(NC(=O)c3ccc(NS(=O)(=O)CCO)cc3N3CCC4(CC3)CC4)cc(N3CCC(F)(F)CC3)c2n1 [Example 65, N-(8-(4,4-difluoropiperidin-1-yl)-2-methoxyquinolin-6-yl)-4-(2-hydroxyethylsulfonamide)-2-(6-azaspiro[2.5]octan-6-yl)benzamide] |
| 6.92 | 6.51 | 7.00 | N#Cc1ccc2cc(NC(=O)c3ccc(NS(=O)(=O)CCO)cc3N3CCC4(CC3)CC4)cc(N3CCC(F)(F)CC3)c2n1 [Example 68, N-(2-cyano-8-(4,4-difluoropiperidin-1-yl)quinolin-6-yl)-4-((2-hydroxyethyl)sulfon amido)-2-(6-azaspiro[2.5]oct-6-yl)benzamide] |
| 5.98 | 5.99 | 5.96 | O=C(Nc1cc(N2CCC(F)(F)CC2)c2nc(C(F)(F)F)ccc2c1)c1ccc(NS(=O)(=O)CCO)cc1N1CCC2(CC1)CC2 [Example 69, (2-(6-Azaspiro[2.5]octan-6-yl)-4-{[(2-hydroxyethyl)sulfonyl]amino}phenyl)-N-[8-(4,4-difluoropiperidinyl)-2-(trifluoromethyl)(6-quinolinyl)]formamide] |
| 8.05 | 7.37 | 7.80 | [2H]c1c(NC(=O)c2ccc(NS(=O)(=O)CCO)cc2N2CCC3(CC2)CC3)cc2cccnc2c1N1CCC(F)(F)CC1 [Example 70, N-(8-(4,4-difluoropiperidin-1-yl)quinolin-6-yl-7-d)-4-((2-hydroxyethyl)sulphonamino)-2-(6-azaspiro[2.5]octan-6-yl)benzamide] |
| 7.74 | 6.89 | 7.77 | O=C(Nc1cc2cccnc2c(N2CCC(F)(F)CC2)c1F)c1ccc(NS(=O)(=O)CCO)cc1N1CCC2(CC1)CC2 [Example 71, N-(8-(4,4-difluoropiperidin-1-yl)-7-fluoroquinolin-6-yl)-4-((2-hydroxyethyl)sulfonamido)-2-(6-azaspiro[2.5]octan-6-yl]benzamide] |
| < 5.52 | < 5.52 | < 5.52 | O=C(Nc1cc2cccnc2c(N2CCC(F)(F)CC2)c1C(F)(F)F)c1ccc(NS(=O)(=O)CCO)cc1N1CCC2(CC1)CC2 [Example 72, N-(8-(4,4-difluoropiperidin-1-yl)-7-(trifluoromethyl)quinolin-6-yl)-4-((2-hydroxyethyl)sulfonamido)-2-(6-azaspiro[2.5]octan-6-yl)] |
| 5.99 | < 5.52 | 5.85 | O=C(Nc1cc2cccnc2c(N2CCC(F)(F)CC2)c1Cl)c1ccc(NS(=O)(=O)CCO)cc1N1CCC2(CC1)CC2 [Example 73, N-(7-chloro-8-(4,4-difluoropiperidin-1-yl)quinolin-6-yl)-4-((2-hydroxyethyl)sulfonamido)-2-(6-azaspiro[2.5]oct-6-yl)benzamide] |
| 5.82 | < 5.52 | 5.75 | N#Cc1c(NC(=O)c2ccc(NS(=O)(=O)CCO)cc2N2CCC3(CC2)CC3)cc2cccnc2c1N1CCC(F)(F)CC1 [Example 74, N-(7-cyano-8-(4,4-difluoropiperidin-1-yl)quinolin-6-yl)-4-((2-hydroxyethyl)sulfon amido)-2-(6-azaspiro[2.5]oct-6-yl)benzamide] |
| 7.08 | 6.41 | 7.36 | Cc1ccc2cc(NC(=O)c3ccc(NS(=O)(=O)CCO)cc3N3CCC4(CC3)CC4)c(F)c(N3CCC(F)(F)CC3)c2n1 [Example 75, N-(8-(4,4-difluoropiperidin-1-yl)-7-fluoro-2-methylquinolin-6-yl)-4-((2-hydroxyethyl)sulfonamido)-2-(6-azaspiro[2.5]octan-6-yl)benzamide] |

Further lines, the molecule ahead of its results:

| Compound | pIC50 [1] | pIC50 [2] | pIC50 [3] |
| --- | --- | --- | --- |
| COc1ccc2cc(NC(=O)c3ccc(NS(=O)(=O)CCO)cc3N3CCC4(CC3)CC4)nc(N3CCC(F)(F)CC3)c2n1 [Example 52, N-(8-(4,4-difluoropiperidin-1-yl)-2-methoxy-1,7-naphthyridin-6-yl)-4-(2-hydroxyethylsulfonamido)-2-(6-azaspiro[2.5]octan-6-yl)benzamide] | 7.08 | 6.83 | 7.04 |
| Nc1ccc2cc(NC(=O)c3ccc(NS(=O)(=O)CCO)cc3N3CCC4(CC3)CC4)nc(N3CCC(F)(F)CC3)c2n1 [Example 53, N-(2-amino-8-(4,4-difluoropiperidin-1-yl)-1,7-naphthyridin-6-yl)-4-(2-hydroxyethylsulfonamido)-2-(6-azaspiro[2.5]octan-6-yl)benzamide] | 8.40 | 7.03 | 8.22 |
| O=C(Nc1cc2ccc(O)nc2c(N2CCC(F)(F)CC2)n1)c1ccc(NS(=O)(=O)CCO)cc1N1CCC2(CC1)CC2 [Example 54, 2-{6-azaspiro[2.5]octan-6-yl}-N-[8-(4,4-difluoropiperidin-1-yl)-2-hydroxy-1,7-naphthyridin-6-yl]-4-(2-hydroxyethanesulfonamido)benzamide] | 8.22 | 7.57 | 7.74 |
| O=C(Nc1cc2cncnc2c(N2CCC(F)(F)CC2)n1)c1ccc(NS(=O)(=O)CCO)cc1N1CCC2(CC1)CC2 [Example 58] | 7.92 | 7.49 | 7.77 |
| O=C(Nc1cc2nccnc2c(N2CCC(F)(F)CC2)n1)c1ccc(NS(=O)(=O)CCO)cc1N1CCC2(CC1)CC2 [Example 59] | 7.85 | 7.42 | 7.66 |
| COc1cc2cc(NC(=O)c3ccc(NS(=O)(=O)CCO)cc3N3CCC4(CC3)CC4)nc(N3CCC(F)(F)CC3)c2nn1 [Example 60, N-(8-(4,4-difluoropiperidin-1-yl)-3-methoxypyrido[3,4-c]pyridazin-6-yl)-4-(2-hydroxyethylsulfonamido)-2-(6-azaspiro[2.5]octan-6-yl)benzamide] | 7.74 | 7.18 | 7.89 |
| Nc1cc2cc(NC(=O)c3ccc(NS(=O)(=O)CCO)cc3N3CCC4(CC3)CC4)nc(N3CCC(F)(F)CC3)c2nn1 [Example 62, N-[3-amino-8-(4,4-difluoropiperidin-1-yl)pyrido[3,4-c]pyridazin-6-yl]-2-{6-azaspiro[2.5]octan-6-yl}-4-(2-hydroxyethanesulfonamido)benzamide] | 7.89 | 7.55 | 7.92 |
| O=C(Nc1cc(N2CCC(F)(F)CC2)c2ncccc2c1)c1ccc(NS(=O)(=O)CCO)cc1N1CCC2(CC1)CC2 [Example 63] | 7.96 | 7.46 | 7.82 |
| Cc1ccc2cc(NC(=O)c3ccc(NS(=O)(=O)CCO)cc3N3CCC4(CC3)CC4)cc(N3CCC(F)(F)CC3)c2n1 [Example 64] | 7.12 | 6.94 | 7.09 |
| O=C(Nc1cc(N2CCC(F)(F)CC2)c2nc(O)ccc2c1)c1ccc(NS(=O)(=O)CCO)cc1N1CCC2(CC1)CC2 [Example 66] | 7.46 | 7.64 | 7.10 |
| Nc1ccc2cc(NC(=O)c3ccc(NS(=O)(=O)CCO)cc3N3CCC4(CC3)CC4)cc(N3CCC(F)(F)CC3)c2n1 [Example 67] | 8.15 | 7.28 | 7.89 |
